Values quoted from earlier work in PMC9160825, “Structural and Functional Characterization of a Novel Scorpion Toxin that Inhibits NaV1.8 via Interactions With the DI Voltage Sensor and DII Pore Module” (Frontiers in Pharmacology, 2022).

Legend:
[1] = test system: DRG nociceptive sensory neurons
Text: In addition to modifying activation and fast inactivation gating, NaTx36 modifies slow inactivation gating in OtNaV1.8 by substantially shifting the voltage dependence to hyperpolarized membrane potentials (Figure 5B). Slow inactivation differs from fast inactivation in voltage- and time-dependent properties. While fast inactivation inhibits NaV excitability within milliseconds of action potential firing, slow inactivation develops in response to prolonged membrane depolarization (tens of seconds) or a series of action potentials, inhibiting NaV excitability over longer timescales (seconds to ...

house mouse NaV1.8 = settings: ref Zhang and Bean, 2021
[2] = test system: sodium channel DI voltage sensor; design: method as in Xiao et al., 2014; settings: ref Xiao et al., 2014

For `C=C(C)[C@@H]1CCC(C)=C[C@H]1c1c(O)cc(CCCCC)cc1O` [CBD, cannabidiol], the “repetitive action potential firing and DRG neuronal excitability” value ([1]; ref Zhang and Bean, 2021) is given as “reduces repetitive action potential firing and DRG neuronal excitability” and the “inhibition of house mouse NaV1.8” value (house mouse NaV1.8) is given as “inhibited house mouse NaV1.8 in a state-dependent manner”.
For `COc1cc(CNC(=O)CCCC/C=C/C(C)C)ccc1O` [capsaicin], the “NaV1.8 TTX-R Na+ currents and action potential firing” value ([1]; sustained excitation of DRG membranes, ref Blair and Bean, 2003) is listed as “caused a decrease in NaV1.8 TTX-R Na^+ currents and action potential firing”.
For ProTx-II: spider toxin, the “effect on gating pore currents via DI voltage sensor” value [2] is listed as “modify the voltage dependence of gating pore currents”.
